Where “and” joins values, the source holds several entries; their conditions need not be identical. Identical values can stand only once. Counter-ions that a name gives are not always drawn. Like-named read-outs stand apart in the source and are kept apart here.
Target: cGMP-PDE V (Homo sapiens, UniProt O76074)
Test: biochemical
Parameters: species or system various animal species and man
Conditions: for inhibition at 1 µM / inhibition at 10 µM / inhibition at 0.1 µM / inhibition at 0.01 µM: read-out: Percent Inhibition cGMP-PDE V; for IC50: values separated by / and marked * are separate experimental runs
Method: The cGMP-PDE and other PDE isozymes were isolated from cardiovascular tissues (heart and aorta) of various animal species and man by anion-exchange and affinity chromatography as described by Silver et al., Sec. Messeng. Phos. 13:13-25, 1991; PDE activity, in the presence and absence of test compounds was determined essentially as described by Thompson et al., Adv. Cyclic Nucleotide Res. 10:69-92. To determine the potency and selectivity of compounds as PDE inhibitors, compounds are screened for their effect on cyclic nucleotide hydrolysis at 10 μM. […] The IC50 values are calculated from concentration-response curves as described by Tallarida and Murray, Manual of Pharmacologic Calculations with Computer Programs, Procedure 8, Graded Dose-response, pp. 14-19, Springer-Verlag, New York, 1981.

Q: How did the inhibition at 1 µM (1 μM) turn out when CCc1[nH]n(C2CCCC2)c2nc(-c3ccc(OCCCN(C)C)cc3)nc(=O)c1-2 [Example 10, 1-cyclopentyl-3-ethyl-6-[4-[3-(dimethylamino)propoxy]phenyl]pyrazolo[3,4-d]pyrimidin-4-one] was run?
A: 15%

Q: What about the inhibition at 10 µM (10 μM) of the same compound?
A: 85%

Q: How did the IC50 turn out when CCc1[nH]n(C2CCCC2)c2nc(-c3ccccc3)nc(=O)c1-2 [Example 2, 1-cyclopentyl-3-ethyl-6-phenyl-pyrazolo[3,4-d]pyrimidin-4-one] was run?
A: 0.25 µM

Q: How did the IC50 turn out when CCc1nn(C2CCCC2)c2nc(-c3cccc(OCCN(C)C)c3)[nH]c(=O)c12 [23 (c)] was run?
A: 0.54 µM

Q: For CCOC(=O)COc1ccccc1-c1nc2n(C3CCCC3)[nH]c(CC)c-2c(=O)n1 [12 (b), 1-cyclopentyl-3-ethyl-6-[2-(ethoxycarbonylmethoxy)phenyl]pyrazolo [3,4-d]pyrimidin-4-one], which inhibition at 0.1 µM (0.1 μM) is on record?
A: 30%

Q: And the inhibition at 1 µM (1 μM)?
A: 74%

Q: CCc1[nH]n(C2CCCC2)c2nc(-c3cccc(OCc4ccncc4)c3)nc(=O)c1-2 [42 (c), 1-cyclopentyl-3-ethyl-6-[3-[4-pyridinylmethoxy]phenyl]pyrazolo[3,4-d]pyrimidin-4-one] was tested. Which inhibition at 0.01 µM (0.01 μM) did it give?
A: 25%

Q: What about the inhibition at 0.1 µM (0.1 μM) of the same compound?
A: 56%

Q: CCc1nn(C2CCCC2)c2nc(-c3ccccc3OCC(=O)O)[nH]c(=O)c12 [Example 16, 1-cyclopentyl-3-ethyl-6-[2-(carboxymethoxy)phenyl]pyrazolo[3,4-d]pyrimidin-4-one 1/2 hydrate] was tested. Which inhibition at 1 µM (1 μM) did it give?
A: 19%

Q: And the inhibition at 10 µM (10 μM)?
A: 68%

Q: CCc1[nH]n(C2CCCC2)c2nc(-c3ccccc3C(F)(F)F)nc(=O)c1-2 [Example 15, 1-cyclopentyl-3-ethyl-6-(2-trifluoromethylphenyl)-pyrazolo[3,4-d]pyrimidin-4-one] was tested. Which IC50 did it give?
A: 0.5 µM

Q: Which results are given for CCc1nn(C2CCCC2)c2nc(-c3ccc(N)cc3)[nH]c(=O)c12 [Example 31, 1-cyclopentyl-3-ethyl-6-(4-aminophenyl)pyrazolo[3,4-d]pyrimidin-4-one hydrochloride 1/3 hydrate]?
A: inhibition at 0.1 µM (0.1 μM): 31%; inhibition at 1 µM (1 μM): 61%

Q: For CCc1nn(C2CCCC2)c2nc(-c3ccc(-n4ccnc4)cc3)[nH]c(=O)c12 [8 (b), 1-cyclopentyl-3-ethyl-6-[4-(1-imidazolyl)phenyl]pyrazole[3,4-d]pyrimidin-4-one], which inhibition at 0.1 µM (0.1 μM) is on record?
A: 32%

Q: And the inhibition at 1 µM (1 μM)?
A: 70%

Q: For CCc1[nH]n(C2CCCC2)c2nc(-c3cccc(OC4CCCCN(C)C4)c3)nc(=O)c1-2 (centres unmarked) [43 (b), 1-cyclopentyl-3-ethyl-6-[3-(1-methyl-3-hexahydroazepinyloxy)phenyl]pyrazolo[3,4-d]pyrimidin-4-one], which inhibition at 0.1 µM (0.1 μM) is on record?
A: 41%

Q: And the inhibition at 1 µM (1 μM)?
A: 75%

Q: Which results are given for CCc1[nH]n(C2CCCC2)c2nc(-c3ccccc3O)nc(=O)c1-2 [Example 7, 1-cyclopentyl-3-ethyl-6-(2-hydroxyphenyl)pyrazolo[3,4-d]pyrimidin-4-one]?
A: inhibition at 1 µM (1 μM): 20%; inhibition at 10 µM (10 μM): 51%

Q: With CCc1[nH]n(C2CCCC2)c2nc(-c3ccc(OC)c(OCCN4CCOCC4)c3)nc(=O)c1-2 [35 (b), 1-cyclopentyl-3-ethyl-6-[4-methoxy-3-[2-(4-morpholinyl)ethoxy]phenyl]pyrazolo[3,4-d]pyrimidin-4-one] as the compound, how does the inhibition at 0.01 µM (0.01 μM) read?
A: 13%

Q: And the inhibition at 0.1 µM (0.1 μM)?
A: 58%

Q: CCOC(=O)COc1cccc(-c2nc3n(C4CCCC4)[nH]c(CC)c-3c(=O)n2)c1 [20 (b), 1-cyclopentyl-3-ethyl-6-[3-(ethoxycarbonylmethoxy)phenyl]pyrazolo[3,4-d]pyrimidin-4-one] was tested. Which IC50 did it give?
A: 0.094 µM

Q: Which inhibition at 0.1 µM (0.1 μM) does the source give for CCOc1cc(N(CC)CC)ccc1-c1nc2n(C3CCCC3)[nH]c(CC)c-2c(=O)n1 [37 (b), 1-cyclopentyl-3-ethyl-6-[2-ethoxy-4-(diethylamino)phenyl]pyrazolo[3,4-d]pyrimidin-4-one] here?
A: 31%

Q: What about the inhibition at 1 µM (1 μM) of the same compound?
A: 73%

Q: With CCCOc1ccccc1-c1nc2[nH]ncc2c(=O)[nH]1 [17 (c), 6-(2-propoxyphenyl)pyrazolo[3,4-d]pyrimidin-4-one 1/4 hydrate] as the compound, how does the inhibition at 0.1 µM read?
A: 14%

Q: What about the inhibition at 1 µM of the same compound?
A: 19%

Q: What about the inhibition at 10 µM of the same compound?
A: 39%

Q: Which results are given for CCc1[nH]n(C2CCCC2)c2nc(-c3ccccc3-n3ccnc3)nc(=O)c1-2 [27 (c), 1-cyclopentyl-3-ethyl-6-[2-(1-imidazolyl)phenyl]pyrazolo[3,4-d]pyrimidin-4-one]?
A: inhibition at 0.1 µM (0.1 μM): 21%; inhibition at 1 µM (1 μM): 73%

Q: How did the inhibition at 0.1 µM (0.1 μM) turn out when CCc1nn(C2CCCC2)c2nc(-c3ccc4c(c3)CCO4)[nH]c(=O)c12 [Example 32, 1-cyclopentyl-3-ethyl-6-(2,3-dihydrobenzo[b]furan-5-yl)pyrazolo[3,4-d]pyrimidin-4-one 1/10 hydrate] was run?
A: 23%

Q: What about the inhibition at 1 µM (1 μM) of the same compound?
A: 47%

Q: For CCc1[nH]n(C2CCCC2)c2nc(-c3ccc([N+](=O)[O-])cc3)nc(=O)c1-2 [Example 28, 1-cyclopentyl-3-ethyl-6-(4-nitrophenyl)pyrazolo [3,4-d]pyrimidin-4-one], which inhibition at 1 µM (1 μM) is on record?
A: 40%

Q: With CCc1[nH]n(C2CCCC2)c2nc(-c3cccc(O)c3)nc(=O)c1-2 [Example 44, 1-cyclopentyl-3-ethyl-6-(3-hydroxyphenyl)pyrazolo[3,4-d]pyrimidin-4-one] as the compound, how does the inhibition at 0.1 µM (0.1 μM) read?
A: 29%

Q: What about the inhibition at 1 µM (1 μM) of the same compound?
A: 56%

Q: Which IC50 does the source give for CCc1nn(C2CCCC2)c2nc(-c3ccc(OCC(=O)O)cc3OC)[nH]c(=O)c12 [Example 14, 1-cyclopentyl-3-ethyl-6-[(2-methoxy-4-carboxymethoxy)phenyl]pyrazolo[3,4-d]pyrimidin-4-one] here?
A: 0.81 µM

Q: What does the source list for CCc1[nH]n(C2CCCC2)c2nc(-c3ccc(Cl)cc3O)nc(=O)c1-2 [Example 30, 1-cyclopentyl-3-ethyl-6-(4-chloro-2-hydroxyphenyl)pyrazolo[3,4-d]pyrimidin-4-one]?
A: inhibition at 0.1 µM (0.1 μM): 9%; inhibition at 1 µM (1 μM): 53%

Q: With CCc1[nH]n(C2CCCC2)c2nc(-c3ccccc3OCCOC)nc(=O)c1-2 [34 (b), 1-cyclopentyl-3-ethyl-6-[2-[2-(methoxy)ethoxy]phenyl]pyrazolo[3,4-d]pyrimidin-4-one] as the compound, how does the inhibition at 0.01 µM (0.01 μM) read?
A: 28%

Q: And the inhibition at 0.1 µM (0.1 μM)?
A: 56%

Q: Which results are given for CCc1[nH]n(C2CCCC2)c2nc(-c3ccc(NS(C)(=O)=O)cc3)nc(=O)c1-2 [Example 33, 1-cyclopentyl-3-ethyl-6-[4-(methylsulfonylamino)phenyl]pyrazolo[3,4-d]pyrimidin-4-one]?
A: inhibition at 0.1 µM (0.1 μM): 21%; inhibition at 1 µM (1 μM): 56%

Q: With CCOc1cc(-n2ccnc2)ccc1-c1nc2n(C3CCCC3)[nH]c(CC)c-2c(=O)n1 [46 (c), 1-cyclopentyl-3-ethyl-6-[4-(1-imidazolyl)-2-ethoxyphenyl]pyrazolo[3,4-d]pyrimidin-4-one] as the compound, how does the inhibition at 0.1 µM (0.1 μM) read?
A: 26%

Q: What about the inhibition at 1 µM (1 μM) of the same compound?
A: 76%

Q: And the inhibition at 10 µM (10 μM)?
A: 90%

Q: And the IC50?
A: 0.018 µM

Q: How did the IC50 turn out when CCc1[nH]n(C2CCCC2)c2nc(-c3ccc(OCCN4CCOCC4)cc3)nc(=O)c1-2 [18 (b), 1-cyclopentyl-3-ethyl-6-[4-[2-(4-morpholinyl)ethoxy]phenyl]pyrazolo[3,4-d]pyrimidin-4-one] was run?
A: 0.37 µM

Q: Which IC50 does the source give for CCOc1cc(Cl)ccc1-c1nc2n(C3CCCC3)[nH]c(CC)c-2c(=O)n1 [29 (b), 1-cyclopentyl-3-ethyl-6-(4-chloro-2-ethoxyphenyl)pyrazolo[3,4-d]pyrimidin-4-one] here?
A: 0.0074 µM and 0.0084 µM

Q: What does the source list for CCc1[nH]n(C2CCCC2)c2nc(-c3cc(OCCN4CCOCC4)cc(OCCN4CCOCC4)c3)nc(=O)c1-2 [38 (b), 1-cyclopentyl-3-ethyl-6-[3,5-di[2-(4-morpholinyl)ethoxy]phenyl]pyrazolo[3,4-d]pyrimidin-4-one]?
A: inhibition at 0.01 µM (0.01 μM): 11%; inhibition at 0.1 µM (0.1 μM): 63%

Q: What does the source list for CCc1[nH]n(C2CCCC2)c2nc(-c3cccc(OCCN4CCSCC4)c3)nc(=O)c1-2 [41 (c), 1-cyclopentyl-3-ethyl-6-[3-[2-(4-thiomorpholinyl)ethoxy]phenyl]pyrazolo[3,4-d]pyrimidin-4-one]?
A: inhibition at 0.1 µM (0.1 μM): 46%; inhibition at 1 µM (1 μM): 56%

Q: For CCc1[nH]n(C2CCCC2)c2nc(-c3ccccc3OCCN3CCOCC3)nc(=O)c1-2 [11 (c), 1-cyclopentyl-3-ethyl-6-[2-[2-(4-morpholinyl)ethoxy]phenyl]pyrazolo[3,4-d]pyrimidin-4-one monohydrochloride], which IC50 is on record?
A: 2.7 µM and 4.5 µM

Q: CCc1[nH]n(C2CCCC2)c2nc(-c3cccc(OCC(=O)N4CCOCC4)c3)nc(=O)c1-2 [40 (d), 1-cyclopentyl-3-ethyl-6-[3-(4-morpholinylcarbonylmethoxy)-phenyl]pyrazolo[3,4-d]pyrimidin-4-one] was tested. Which inhibition at 0.1 µM (0.1 μM) did it give?
A: 47%

Q: And the inhibition at 1 µM (1 μM)?
A: 74%

Q: With CCc1[nH]n(C2CCCC2)c2nc(-c3ccccc3OCCCN3CCOCC3)nc(=O)c1-2 [26 (c), 1-cyclopentyl-3-ethyl-6-[2-[3-(4-morpholinyl)propoxy]phenyl]pyrazolo[3,4-d]pyrimidin-4-one] as the compound, how does the inhibition at 1 µM (1 μM) read?
A: 28%

Q: For “1-cyclopentyl-3-ethyl-6-[2-methyl-2,3-dihydrobenzo[b]furan-5-yl]pyrazolo[3,4-d]pyrimidin-4-one [Example 39]”, which “Percent Inhibition cGMP-PDE V” value (0.01 μM) is on record?
A: 24%

Q: What about the “Percent Inhibition cGMP-PDE V” value (0.1 μM) of the same compound?
A: 65%

Q: Which results are given for C=CCc1cccc(-c2nc3n(C4CCCC4)[nH]c(CC)c-3c(=O)n2)c1O [Example 36, 1-cyclopentyl-3-ethyl-6-[2-hydroxy-3-(2-propenyl)phenyl]pyrazolo[3,4-d]pyrimidin-4-one]?
A: inhibition at 0.1 µM (0.1 μM): 0%; inhibition at 1 µM (1 μM): 4%

Source: patent US5736548A, “6-aryl pyrazolo[3,4-D] pyrimidin-4-ones and compositions and method of use thereof” (Sanofi, priority 1997, dated 1998)
